Measurements published in ChEMBL document CHEMBL1147500, “A prodrug approach to COX-2 inhibitors with methylsulfone” (Bioorg Med Chem Lett, 2004).
Values belong to the compound of their own block, whether it stands above or below them.

Columns and labels:
[1] = test system: Rattus norvegicus; assay: Effective dose against adjuvant-induced arthritis (AA) in male lewis rats upon peroral administration (bid); assay type: functional; details: po
[2] = test system: Rattus norvegicus; assay: Inhibition of adjuvant-induced arthritis (AA) in SD rats upon peroral administration (BID) at 0.1 mg/kg/day; assay type: functional; details: route oral
[3] = test system: Rattus norvegicus; assay: Inhibition of adjuvant-induced arthritis (AA) in SD rats upon peroral administration (BID) at 0.3 mg/kg/day; assay type: functional; details: route oral
[4] = Tmax value at a dose of 10 mg/kg in male SD rats; assay type: ADME, organism-based; parameters: dose 10 mg/kg; details: rat, in vivo
[5] = Area under curve (0-24 hr) at a dose of 10 mg/kg in male SD rats; assay type: ADME, organism-based; parameters: time < 24 hr, dose 10 mg/kg; details: rat, in vivo
[6] = Cmax value at a dose of 10 mg/kg in male SD rats; assay type: ADME, organism-based; parameters: dose 10 mg/kg; details: rat, in vivo
[7] = Tmax value at a dose of 100 mg/kg in male SD rats; assay type: ADME, organism-based; parameters: dose 100 mg/kg; details: rat, in vivo
[8] = Tmax value at a dose of 50 mg/kg in male SD rats; assay type: ADME, organism-based; parameters: dose 50 mg/kg; details: rat, in vivo
[9] = Area under curve (0-24 hr) at a dose of 100 mg/kg in male SD rats; assay type: ADME, organism-based; parameters: time < 24 hr, dose 100 mg/kg; details: rat, in vivo
[10] = Area under curve (0-24 hr) at a dose of 50 mg/kg in male SD rats; assay type: ADME, organism-based; parameters: time < 24 hr, dose 50 mg/kg; details: rat, in vivo
[11] = Cmax value at a dose of 100 mg/kg in male SD rats; assay type: ADME, organism-based; parameters: dose 100 mg/kg; details: rat, in vivo
[12] = Cmax value at a dose of 50 mg/kg in male SD rats; assay type: ADME, organism-based; parameters: dose 50 mg/kg; details: rat, in vivo
[13] = target: T1, Prostaglandin G/H synthase 1 (Mus musculus, UniProt P22437); assay: Inhibitory concentration against prostaglandin G/H synthase 1 in mouse peritoneal macrophages
T1 sequence (P22437 whole entry): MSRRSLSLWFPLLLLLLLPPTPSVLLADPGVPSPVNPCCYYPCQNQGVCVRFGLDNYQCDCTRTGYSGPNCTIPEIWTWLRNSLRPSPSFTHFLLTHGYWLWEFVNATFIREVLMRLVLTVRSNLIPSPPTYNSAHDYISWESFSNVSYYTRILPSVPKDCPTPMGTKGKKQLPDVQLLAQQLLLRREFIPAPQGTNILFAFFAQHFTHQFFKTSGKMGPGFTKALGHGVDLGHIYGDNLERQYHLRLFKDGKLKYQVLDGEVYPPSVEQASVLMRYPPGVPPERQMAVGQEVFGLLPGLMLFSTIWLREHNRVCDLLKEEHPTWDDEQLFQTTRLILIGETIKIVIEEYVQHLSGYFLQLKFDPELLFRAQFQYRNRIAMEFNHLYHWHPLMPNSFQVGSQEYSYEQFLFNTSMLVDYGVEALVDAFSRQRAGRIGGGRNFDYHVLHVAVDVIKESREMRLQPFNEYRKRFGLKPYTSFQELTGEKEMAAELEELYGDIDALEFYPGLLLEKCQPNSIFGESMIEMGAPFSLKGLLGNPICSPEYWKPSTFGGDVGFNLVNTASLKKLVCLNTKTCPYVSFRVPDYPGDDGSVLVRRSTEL

[14] = test system: Rattus norvegicus; assay: Effective dose against adjuvant-induced arthritis (AA) in SD rats upon peroral administration (QD); assay type: functional; details: po
[15] = Cmax upon oral administration in male Beagle dog at 10 mg/kg; assay type: ADME, organism-based, Canis lupus familiaris; parameters: dose 10 mg/kg, route oral; details: in vivo
[16] = target: T2, Prostaglandin G/H synthase 2 (Mus musculus, UniProt Q05769); assay: Inhibitory concentration against prostaglandin G/H synthase 2 in mouse peritoneal macrophages
T2 sequence (Q05769 whole entry): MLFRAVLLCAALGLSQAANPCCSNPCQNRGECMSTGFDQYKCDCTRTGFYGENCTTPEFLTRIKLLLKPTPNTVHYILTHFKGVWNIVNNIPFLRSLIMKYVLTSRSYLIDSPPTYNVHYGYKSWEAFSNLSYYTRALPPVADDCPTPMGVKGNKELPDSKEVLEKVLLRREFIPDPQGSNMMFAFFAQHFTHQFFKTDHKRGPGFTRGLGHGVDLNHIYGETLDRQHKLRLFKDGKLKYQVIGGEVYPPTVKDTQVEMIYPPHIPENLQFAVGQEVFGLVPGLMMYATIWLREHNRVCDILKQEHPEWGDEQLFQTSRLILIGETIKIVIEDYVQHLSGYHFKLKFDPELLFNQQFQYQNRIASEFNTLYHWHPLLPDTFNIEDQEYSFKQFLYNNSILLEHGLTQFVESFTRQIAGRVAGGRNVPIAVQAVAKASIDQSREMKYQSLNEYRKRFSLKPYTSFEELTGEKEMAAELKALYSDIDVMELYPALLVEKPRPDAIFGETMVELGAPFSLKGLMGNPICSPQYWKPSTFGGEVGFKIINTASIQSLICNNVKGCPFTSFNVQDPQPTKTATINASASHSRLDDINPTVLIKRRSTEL

Compound: C[S+]([O-])c1ccc(C2=C(c3cc(F)cc(F)c3)C(=O)C(C)(C)O2)cc1 (stereo not drawn)
ED50 [1]: ~0.2 mg/kg/day
inhibition in vivo at 0.1 mg/kg/day [2]: 40%
inhibition in vivo at 0.3 mg/kg/day [3]: 76%

Compound: CC1(C)OC(c2ccc(S(C)(=O)=O)cc2)=C(c2cc(F)cc(F)c2)C1=O
Tmax [4]: 2 h
Tmax [7]: 5 h
Tmax [8]: 4.3 h
AUC(0-t) at 24 h [5]: 23100 ng·h/mL
AUC(0-t) at 24 h [9]: 487000 ng·h/mL
AUC(0-t) at 24 h [10]: 359000 ng·h/mL
Cmax [6]: 2580 ng/mL
Cmax [11]: 24900 ng/mL
Cmax [12]: 11700 ng/mL
IC50 [13]: 13.2 µM
ED50 [14]: 0.03 mg/kg/day
Cmax [15]: 130 ng/mL
IC50 [16]: 0.0529 µM

Compound: COc1ccc2c(c1)c(CC(=O)O)c(C)n2C(=O)c1ccc(Cl)cc1 [INDOMETHACIN]
inhibition in vivo at 0.3 mg/kg/day [3]: 60%

More lines, now with the values ahead:

Tmax [4]: 1.5 h
AUC(0-t) at 24 h [5]: 12700 ng·h/mL
Cmax [6]: 1390 ng/mL
Compound: CC1(C)OC(c2ccc(S(C)(=O)=O)cc2)=C(c2cccc(Cl)c2)C1=O

Tmax [4]: 0.5 h
AUC(0-t) at 24 h [5]: 3610 ng·h/mL
Cmax [6]: 460 ng/mL
Compound: C[S+]([O-])c1ccc(C2=C(c3cccc(Cl)c3)C(=O)C(C)(C)O2)cc1 (stereo not drawn)
